ChEMBL document CHEMBL5137025, “Tuberculosis Drug Discovery: Challenges and New Horizons” (J Med Chem, 2022)
Values after ≈ are worked out from the molar mass of the structure shown.

Key:
[1] = test system: Mycobacterium tuberculosis; assay type: functional; conditions: H37Rv, 168 h, time 7 day
[2] = Protein binding in human plasma incubated for 5 hrs by LC-MS/MS analysis; assay type: ADME, cell-free; conditions: read-out: PPB (converted)
[3] = test system: Mycobacterium tuberculosis; assay type: functional, H37Rv; conditions: dose 20-200 mg/kg; route po; time 4 weeks
[4] = Stability in mouse liver microsome assessed as half life by Reverse-phase HPLC analysis; assay type: ADME; conditions: liver microsomes
[5] = biological target: Voltage-gated inwardly rectifying potassium channel KCNH2 (Homo sapiens, UniProt Q12809)
Voltage-gated inwardly rectifying potassium channel KCNH2, sequence (Q12809 whole entry): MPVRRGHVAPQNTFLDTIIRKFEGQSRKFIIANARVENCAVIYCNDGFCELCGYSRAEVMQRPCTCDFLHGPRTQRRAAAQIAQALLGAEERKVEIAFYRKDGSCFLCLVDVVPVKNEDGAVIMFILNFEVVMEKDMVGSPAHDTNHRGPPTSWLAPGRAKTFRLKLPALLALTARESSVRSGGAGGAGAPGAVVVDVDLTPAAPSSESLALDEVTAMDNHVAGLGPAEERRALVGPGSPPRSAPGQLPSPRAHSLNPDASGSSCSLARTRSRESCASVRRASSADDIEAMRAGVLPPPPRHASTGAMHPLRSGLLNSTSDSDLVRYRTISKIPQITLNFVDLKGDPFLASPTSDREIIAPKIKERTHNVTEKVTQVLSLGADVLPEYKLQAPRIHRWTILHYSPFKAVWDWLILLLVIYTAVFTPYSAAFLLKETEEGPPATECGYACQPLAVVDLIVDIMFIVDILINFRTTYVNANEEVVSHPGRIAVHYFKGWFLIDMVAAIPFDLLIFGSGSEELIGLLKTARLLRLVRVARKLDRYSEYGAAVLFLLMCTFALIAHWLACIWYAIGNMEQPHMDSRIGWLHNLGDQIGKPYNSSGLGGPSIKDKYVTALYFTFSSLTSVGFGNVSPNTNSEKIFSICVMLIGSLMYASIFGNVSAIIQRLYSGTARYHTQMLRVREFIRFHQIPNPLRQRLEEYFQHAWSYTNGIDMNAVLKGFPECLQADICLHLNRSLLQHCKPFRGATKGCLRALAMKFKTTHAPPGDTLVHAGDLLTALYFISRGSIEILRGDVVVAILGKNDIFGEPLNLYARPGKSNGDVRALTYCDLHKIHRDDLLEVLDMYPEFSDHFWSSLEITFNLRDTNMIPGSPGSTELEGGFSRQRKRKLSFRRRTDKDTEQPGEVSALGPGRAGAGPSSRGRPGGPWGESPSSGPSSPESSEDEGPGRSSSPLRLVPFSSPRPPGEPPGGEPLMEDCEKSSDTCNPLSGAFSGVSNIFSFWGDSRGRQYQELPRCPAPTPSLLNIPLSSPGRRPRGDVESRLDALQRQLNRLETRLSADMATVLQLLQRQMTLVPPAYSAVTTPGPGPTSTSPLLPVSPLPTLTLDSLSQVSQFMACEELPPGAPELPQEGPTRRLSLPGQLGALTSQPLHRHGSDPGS

[6] = test system: Mycobacterium tuberculosis; assay type: functional, H37Rv; conditions: dose 100 mg/kg; route po; time 4 weeks
[7] = test system: Mycobacterium tuberculosis; assay type: functional, H37Rv; conditions: dose 400 mg/kg; route sc; time 3 weeks
[8] = test system: Mycobacterium tuberculosis; assay type: functional; conditions: H37Rv, 336 h, time 14 day
[9] = Metabolic stability in human liver microsomes assessed as half life in presence of NADPH regenerating system measured for 5 to 60 mins by LC/MS/MS analysis; assay type: ADME, Microsome; conditions: time 5-60 min
[10] = Inhibition of Mycobacterium tuberculosis Shikimate dehydrogenase expressed in Escherichia coli BL21 using shikimic acid as substrate incubated for 60 mins in presence of NADP+ by enzymatic assay
HepG2 [11] = assay: Cytotoxicity against human HepG2 cells; assay type: functional
[12] = test system: Mycobacterium tuberculosis; assay: microbe, parasite or virus in culture; conditions: H37Rv
Description: Antibacterial activity against Mycobacterium tuberculosis H37Rv assessed as inhibition of bacterial growth

[13] = Metabolic stability in rat liver microsomes assessed as half life in presence of NADPH regenerating system measured for 5 to 60 mins by LC/MS/MS analysis; assay type: ADME, Microsome; conditions: time 5-60 min
Cytochrome P450 2C9 = Cytochrome P450 2C9 (Homo sapiens, UniProt P11712); assay: Inhibition of CYP2C9 in human liver microsome in presence of NADPH measured after 10 mins by LC/MS/MS analysis; assay type: ADME, microsomes
Cytochrome P450 2C9, sequence (P11712 whole entry): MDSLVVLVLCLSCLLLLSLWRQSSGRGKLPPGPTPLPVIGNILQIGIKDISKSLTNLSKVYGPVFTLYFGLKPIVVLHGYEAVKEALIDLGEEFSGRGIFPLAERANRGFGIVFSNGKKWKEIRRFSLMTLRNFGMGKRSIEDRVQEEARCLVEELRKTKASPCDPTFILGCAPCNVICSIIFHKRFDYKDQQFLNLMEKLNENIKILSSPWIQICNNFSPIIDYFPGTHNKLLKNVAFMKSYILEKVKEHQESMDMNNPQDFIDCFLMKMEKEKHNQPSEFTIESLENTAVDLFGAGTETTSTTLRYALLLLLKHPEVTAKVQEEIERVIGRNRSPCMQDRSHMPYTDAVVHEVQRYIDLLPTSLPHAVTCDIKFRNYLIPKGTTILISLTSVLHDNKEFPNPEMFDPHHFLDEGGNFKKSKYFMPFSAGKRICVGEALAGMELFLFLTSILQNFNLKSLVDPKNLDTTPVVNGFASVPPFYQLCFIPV

[14] = Oral bioavailability in Sprague-Dawley rat at 5 mg/kg measured for 0.083 to 24 hrs by LC-MS/MS analysis; assay type: ADME, organism-based; conditions: in vivo, time 0.083-24 hrs
Cytochrome P450 1A2 = biological target: T1, Cytochrome P450 1A2 (Homo sapiens, UniProt P05177); assay: Inhibition of CYP1A2 in human liver microsome in presence of NADPH measured after 10 mins by LC/MS/MS analysis; assay type: microsomes
T1 sequence (P05177 whole entry): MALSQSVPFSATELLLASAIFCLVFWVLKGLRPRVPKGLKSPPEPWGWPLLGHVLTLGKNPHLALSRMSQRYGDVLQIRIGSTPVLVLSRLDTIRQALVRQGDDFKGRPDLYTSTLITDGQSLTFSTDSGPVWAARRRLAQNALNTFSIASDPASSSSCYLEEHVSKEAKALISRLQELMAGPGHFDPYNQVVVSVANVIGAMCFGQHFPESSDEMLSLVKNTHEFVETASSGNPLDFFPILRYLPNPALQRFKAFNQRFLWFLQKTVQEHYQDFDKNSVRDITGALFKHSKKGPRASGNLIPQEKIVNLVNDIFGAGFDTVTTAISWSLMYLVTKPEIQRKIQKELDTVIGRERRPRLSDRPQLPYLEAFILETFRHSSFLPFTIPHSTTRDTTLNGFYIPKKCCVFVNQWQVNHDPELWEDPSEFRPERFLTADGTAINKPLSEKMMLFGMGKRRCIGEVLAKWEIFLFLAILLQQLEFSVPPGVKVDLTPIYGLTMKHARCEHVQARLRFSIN

[15] = Metabolic stability in mouse liver microsomes assessed as half life in presence of NADPH regenerating system measured for 5 to 60 mins by LC/MS/MS analysis; assay type: ADME, Microsome; conditions: time 5-60 min
[16] = test system: Mycobacterium tuberculosis; assay type: functional, H37Rv; conditions: dose 50 mg/kg; route po; time 15 day
[17] = Half life in Sprague-Dawley rat at 5 mg/kg, po measured for 0.083 to 24 hrs by LC-MS/MS analysis; assay type: ADME, organism-based; conditions: in vivo, time 0.083-24 hrs
Cytochrome P450 2C19 = Cytochrome P450 2C19 (Homo sapiens, UniProt P33261); assay: Inhibition of CYP2C19 in human liver microsome in presence of NADPH measured after 10 mins by LC/MS/MS analysis; assay type: ADME, microsomes
Cytochrome P450 2C19, sequence (P33261 whole entry): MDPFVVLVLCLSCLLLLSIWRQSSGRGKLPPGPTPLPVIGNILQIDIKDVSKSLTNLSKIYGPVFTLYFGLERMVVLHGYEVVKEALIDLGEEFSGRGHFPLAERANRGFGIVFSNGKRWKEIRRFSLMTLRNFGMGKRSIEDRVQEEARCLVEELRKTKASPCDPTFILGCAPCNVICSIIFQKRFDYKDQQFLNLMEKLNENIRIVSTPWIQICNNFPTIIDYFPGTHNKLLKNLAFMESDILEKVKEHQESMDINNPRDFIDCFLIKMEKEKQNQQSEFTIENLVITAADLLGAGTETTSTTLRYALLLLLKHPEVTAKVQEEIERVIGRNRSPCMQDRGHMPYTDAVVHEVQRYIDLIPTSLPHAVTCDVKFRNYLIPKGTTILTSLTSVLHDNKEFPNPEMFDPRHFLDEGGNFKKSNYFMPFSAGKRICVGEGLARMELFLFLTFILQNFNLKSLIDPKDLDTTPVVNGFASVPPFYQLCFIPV

[18] = test system: Mycobacterium tuberculosis; assay: Antibacterial activity against Mycobacterium tuberculosis in acute Mtb infection 129sv dehydropeptidase-1 KO mouse model assessed as reduction in log10 CFU administered orally twice daily for 6 days; assay type: functional; conditions: route po; time 6 day
[19] = test system: Mycobacterium tuberculosis; assay: Antibacterial activity against Mycobacterium tuberculosis in acute Mtb infection mouse model assessed as reduction in log10 CFU at 200 mg/kg for 3 weeks; assay type: functional
[20] = test system: Mycobacterium tuberculosis; assay: Antibacterial activity against Mycobacterium tuberculosis in acute Mtb infection mouse model assessed as reduction in log10 CFU at 200 mg/kg for 3 weeks in presence of Rifampicin; assay type: functional
[21] = test system: Mycobacterium tuberculosis; assay type: functional; conditions: H37Rv, 336 h, time 14 day; remark: listed apart in the source
[22] = test system: Mycobacterium tuberculosis; assay type: functional; conditions: H37Rv, 336 h, time 14 day; remark: listed apart in the source
[23] = Half life in mouse; assay type: ADME, organism-based; conditions: in vivo
[24] = test system: Mycobacterium tuberculosis; assay type: functional; conditions: H37Rv, 336 h, time 14 day; remark: listed apart in the source
[25] = test system: Mycobacterium tuberculosis; assay: Antibacterial activity against Mycobacterium tuberculosis Erdman in acute Mtb infection BALB/c mouse model assessed as reduction in log10 CFU at 35 mg/kg, ip for 8 days; assay type: functional; conditions: time 8 day
[26] = Inhibition of Mycobacterium tuberculosis ArgJ assessed as inhibition constant by measuring change in blue shift by ANS dye based displacement assay
[27] = test system: Mycobacterium tuberculosis; assay type: functional, H37Rv; conditions: dose 40 mg/kg; route po; time 24 day
[28] = test system: Mycobacterium tuberculosis; assay type: functional, H37Rv; conditions: dose 200 mg/kg; time 8 day
[29] = Kinetic solubility of the compound; assay type: physicochemical; conditions: read-out: Kinetic_solubility
[30] = Kinetic aqueous solubility of the compound incubated for 4.5 hrs by LC-MS/MS analysis; assay type: physicochemical; conditions: buffer, read-out: Kinetic_solubility
[31] = Cytotoxicity against African green monkey Vero cells assessed as reduction in cell viability by MTT assay; assay type: toxicity, cell-based; conditions: chlorocebus sabaeus
[32] = test system: Mycobacterium tuberculosis; assay type: functional, H37Rv; conditions: dose 100 mg/kg; time 8 weeks
[33] = Half life in BALB/c mouse at 100 mg/kg, po by LC/MS analysis; assay type: ADME, organism-based; conditions: in vivo
[34] = test system: Mycobacterium tuberculosis; assay: Antibacterial activity against Mycobacterium tuberculosis in chronic Mtb infection BALB/c mouse model assessed as reduction in log10 CFU in lungs at 100 mg/kg, po for 4 weeks; assay type: functional
HepG2 [35] = assay: cells; conditions: Homo sapiens, HepG2, 40 h
Description: Cytotoxicity against human HepG2 cells treated for 40 hrs by Cell Titer Glo luminescence assay

Cc1n[nH]c2ccc(NS(=O)(=O)CCCCF)cc12
MIC [1]: 0.2 µM (≈ 0.0571 µg/mL) | fraction unbound at 5 h [2]: 0.23 | Activity [3]: >2 log10CFU | half-life [4]: 28 min | IC50 [5]: > 50 µM | Activity [6]: 2 log10CFU

CSC1=C(C(=O)[O-])N2C(=O)[C@H]([C@@H](C)O)[C@H]2[C@H]1C.[Na+]
Activity [7]: <2 log10CFU | MIC90 [8]: 0.9 µM

COc1ccc(OCc2nn3c(-c4ccc(Br)cc4)nnc3s2)cc1
half-life [9]: 1.1 min | IC50 [10]: 29 µM | CC50 (HepG2 [11]): 50 µM | MIC [12]: 4.8 µM (≈ 2 µg/mL) | half-life [13]: 17 min | IC50 (Cytochrome P450 2C9): 0.56 µM | bioavailability [14]: 14% | IC50 (Cytochrome P450 1A2): 0.56 µM | half-life [15]: 1.2 min | Activity [16]: 1.7 log10CFU | half-life [17]: 66 min | IC50 (Cytochrome P450 2C19): 0.56 µM

CO[C@H]1CCC[C@H]2C1=C(C(=O)OC(C)OC(=O)OC1CCCCC1)N1C(=O)[C@H]([C@@H](C)O)[C@@H]21 (some centres undefined) [SANFETRINEM CILEXETIL]
Activity [18]: 1.4 log10CFU

C[C@@H](O)[C@H]1C(=O)N2C(C(=O)[O-])=C(SC3Cn4cnc[n+]4C3)[C@H](C)[C@H]12 (some centres undefined) [BIAPENEM]
Activity [19]: 5.3 log10CFU | Activity [20]: 8.6 log10CFU | MIC90 [21]: 7.1 µM (≈ 2.49 µg/mL) | MIC90 [22]: 1.7 µM (≈ 0.596 µg/mL) | half-life [23]: 17.4 min

Cc1cc2oc(=O)cc(-c3cccc(N)c3)c2c(C)c1-c1ccc(CN2CCOCC2)cc1
MIC99 [24]: 0.24 µM (≈ 0.106 µg/mL) | Activity [25]: 2 log10CFU

O=C(Nc1cccc2c(=O)cc(-c3nnn[nH]3)oc12)c1ccc(OCCCCc2ccccc2)cc1
MIC90 [12]: 10 µM (≈ 4.82 µg/mL) | Ki [26]: 139 µM | Activity [27]: 0.5 log10CFU

CCCCS(=O)(=O)Nc1ccc2cnn(C)c2c1
Activity [28]: 3.5 log10CFU | solubility kinetic [29]: > 550 µM | half-life [4]: 10 min | solubility kinetic at 4.5 h [30]: 175 µM (≈ 46.8 µg/mL) | IC50 [5]: > 50 µM | CC50 [31]: 170 µM | CC50 (HepG2 [11]): > 100 µM | MIC [12]: 0.8 µM (≈ 0.214 µg/mL) | Activity [32]: 2.4 log10CFU

Nc1nc(N)c(N=O)c(OCC2CCCCC2)n1
half-life [33]: 60 min | Activity [34]: 0.9 log10CFU

CCNC(=N)NC(=O)Nc1c(CC)cccc1CC
CC50 (HepG2 [35]): > 30 µM | half-life [23]: 402 min
